US20180348231A1, “LIGAND INDUCIBLE POLYPEPTIDE COUPLER SYSTEM” (Intrexon Corporation, priority 2015, published 2018)
Entries after “also recorded” stand apart in the source; their conditions may differ.

Assays:
[1] = test system: split fLuc fused to EcR and RXR domains; assay: Split firefly luciferase (fLuc) bioluminescence assay, EcR-RXR ligand inducible polypeptide coupler; format: cell-based
Procedure: (§1) HEK293 cells were transfected with the split fLuc fused to EcR and RXR domains as follows:
(§2) A day before transfection, 10,000 cells (293T cells) were plated into each well of a 96 well plate containing 100 μl of growth medium (Dulbecco's Modified Eagle's Medium with 10% Fetal Bovine Serum) without antibiotics. Plasmids in pairs, RxR Nluc with Cluc EcR and EcR_ Nluc with Cluc_ RxR (see FIG. 8; amino acid sequences for the constructs depicted in FIG. 8 are provided as SEQ ID NOs: 87-92, respectively. SEQ ID NOs: 91 and 92 correspond to the EcR and RXR amino sequences, respectively, employed in the constructs of FIG. 8), were transfected with Lipofectamine® 2000, according to manufacturer's specifications. Briefly, individual plasmid DNA (0.2 μg) and 0.5 μl of Lipofectamine 2000® was diluted in 25.0 μl of OptiMEM® I Reduced Serum Medium and incubated for 5 minutes at room temperature, volumes were doubled for co-transfections. Diluted plasmid DNA was combined with diluted Lipofectamine® 2000 and incubated for 20 minutes at room temperature. 50 μl of the DNA/Lipofectamine® 2000 complex was added to each well of the 96 well plate. Cells were incubated at 37° C. in a 5% CO2 incubator for 24 hours, prior to addition of the activating ligand Veledimex. […]

STAT1 = target: T1, STAT1 (Homo sapiens, UniProt P42224); assay: Split fLuc bioluminescence assay, STAT1 positive control; format: cell-based; conditions: Ligand − and +, FIG. 7
T1 construct: expressed in transfected cells; host or cells: HEK293 / 293T cells
T1 sequence (P42224 with tags, fused parts or gaps): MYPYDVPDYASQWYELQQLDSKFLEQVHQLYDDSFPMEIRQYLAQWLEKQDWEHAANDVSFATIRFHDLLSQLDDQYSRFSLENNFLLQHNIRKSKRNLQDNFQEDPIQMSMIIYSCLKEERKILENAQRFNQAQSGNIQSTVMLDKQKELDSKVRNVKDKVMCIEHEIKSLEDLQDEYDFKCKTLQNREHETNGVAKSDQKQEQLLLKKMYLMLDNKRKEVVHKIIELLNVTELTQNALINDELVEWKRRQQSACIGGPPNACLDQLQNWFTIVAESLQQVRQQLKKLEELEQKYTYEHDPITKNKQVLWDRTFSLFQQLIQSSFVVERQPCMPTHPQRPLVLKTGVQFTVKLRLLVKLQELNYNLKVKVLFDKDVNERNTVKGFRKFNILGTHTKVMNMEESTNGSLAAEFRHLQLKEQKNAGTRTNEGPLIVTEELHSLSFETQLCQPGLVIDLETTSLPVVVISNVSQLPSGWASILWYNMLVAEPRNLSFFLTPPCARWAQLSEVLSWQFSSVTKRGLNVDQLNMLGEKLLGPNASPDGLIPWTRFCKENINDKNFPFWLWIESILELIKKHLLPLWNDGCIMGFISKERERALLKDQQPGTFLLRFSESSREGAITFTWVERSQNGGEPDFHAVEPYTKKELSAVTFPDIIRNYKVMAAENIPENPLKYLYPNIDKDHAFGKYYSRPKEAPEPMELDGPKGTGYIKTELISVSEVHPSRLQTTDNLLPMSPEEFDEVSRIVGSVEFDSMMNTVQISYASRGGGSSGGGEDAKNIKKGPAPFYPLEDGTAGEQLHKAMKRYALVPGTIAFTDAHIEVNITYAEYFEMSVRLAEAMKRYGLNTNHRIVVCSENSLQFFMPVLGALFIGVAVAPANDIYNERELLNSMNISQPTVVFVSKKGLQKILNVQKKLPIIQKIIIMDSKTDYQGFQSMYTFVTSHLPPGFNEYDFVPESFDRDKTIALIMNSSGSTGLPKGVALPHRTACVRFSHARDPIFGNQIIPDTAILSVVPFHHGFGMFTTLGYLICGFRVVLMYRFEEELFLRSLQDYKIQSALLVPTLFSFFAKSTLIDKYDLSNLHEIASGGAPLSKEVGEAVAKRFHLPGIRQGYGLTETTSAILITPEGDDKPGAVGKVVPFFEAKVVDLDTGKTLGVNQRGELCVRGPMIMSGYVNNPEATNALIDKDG
T1 sequence (P42224 with tags, fused parts or gaps): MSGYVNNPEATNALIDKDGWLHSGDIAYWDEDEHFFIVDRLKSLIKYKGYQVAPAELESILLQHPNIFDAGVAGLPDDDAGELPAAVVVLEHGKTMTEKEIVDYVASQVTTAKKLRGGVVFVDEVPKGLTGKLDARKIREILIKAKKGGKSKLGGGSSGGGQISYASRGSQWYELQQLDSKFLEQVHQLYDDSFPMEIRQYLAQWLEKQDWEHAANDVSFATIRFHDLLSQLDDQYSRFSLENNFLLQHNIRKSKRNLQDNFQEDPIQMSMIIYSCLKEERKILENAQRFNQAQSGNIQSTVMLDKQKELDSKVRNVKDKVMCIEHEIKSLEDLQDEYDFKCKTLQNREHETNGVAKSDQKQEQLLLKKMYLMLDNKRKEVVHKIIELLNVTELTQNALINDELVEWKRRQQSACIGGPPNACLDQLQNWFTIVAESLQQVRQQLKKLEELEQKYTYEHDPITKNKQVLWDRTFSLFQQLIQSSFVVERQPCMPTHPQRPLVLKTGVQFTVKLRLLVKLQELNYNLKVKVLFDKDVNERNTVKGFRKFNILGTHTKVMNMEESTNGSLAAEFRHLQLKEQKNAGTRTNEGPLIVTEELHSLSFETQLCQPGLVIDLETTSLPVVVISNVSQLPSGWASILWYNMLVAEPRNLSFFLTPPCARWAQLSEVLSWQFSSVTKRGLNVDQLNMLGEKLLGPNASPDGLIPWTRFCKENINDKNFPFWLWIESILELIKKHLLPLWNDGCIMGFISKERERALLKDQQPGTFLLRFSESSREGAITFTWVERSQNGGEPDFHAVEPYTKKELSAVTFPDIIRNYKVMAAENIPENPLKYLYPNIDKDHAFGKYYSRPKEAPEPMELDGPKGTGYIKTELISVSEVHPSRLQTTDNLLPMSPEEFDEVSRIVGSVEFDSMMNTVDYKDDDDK

293T cells = assay: Bioluminescence assay, mock (no vector), activating ligand alone; format: cell-based; conditions: negative control, no split fLuc vectors; FIG. 7
Procedure: A day before transfection, 10,000 cells (293T cells) were plated into each well of a 96 well plate containing 100 μl of growth medium (Dulbecco's Modified Eagle's Medium with 10% Fetal Bovine Serum) without antibiotics. Plasmids in pairs, RxR Nluc with Cluc EcR and EcR_ Nluc with Cluc_ RxR (see FIG. 8; amino acid sequences for the constructs depicted in FIG. 8 are provided as SEQ ID NOs: 87-92, respectively. SEQ ID NOs: 91 and 92 correspond to the EcR and RXR amino sequences, respectively, employed in the constructs of FIG. 8), were transfected with Lipofectamine® 2000, according to manufacturer's specifications. Briefly, individual plasmid DNA (0.2 μg) and 0.5 μl of Lipofectamine 2000® was diluted in 25.0 μl of OptiMEM® I Reduced Serum Medium and incubated for 5 minutes at room temperature, volumes were doubled for co-transfections. Diluted plasmid DNA was combined with diluted Lipofectamine® 2000 and incubated for 20 minutes at room temperature. 50 μl of the DNA/Lipofectamine® 2000 complex was added to each well of the 96 well plate. Cells were incubated at 37° C. in a 5% CO2 incubator for 24 hours, prior to addition of the activating ligand Veledimex.
Twenty four hours (24hrs) post-transfection, cell culture media from each well of the 96-well plate was replaced with 100 nM Veledimex activating ligand and Dimethyl sulfoxide-DMSO (negative control). […]

EcR_Nluc+Cluc_EcR = assay: Split fLuc bioluminescence assay, EcR-EcR homodimerization; format: cell-based; conditions: upon ligand addition, FIGS. 11 and 12
Procedure: (§3) Experiments were performed to test if nuclear receptor domains (i.e., EcR and RxR polypeptides) could be induced to homodimerize upon addition of ligand (FIGS. 11 and 12). STAT1 was used as control polypeptide since it is reported to self dimerize independent of ligand addition. Abbreviations in the figures are:
“EcR-EcR” means “EcR_Nluc+Cluc_EcR” which is a luciferase polypeptide split into two halves, such that an EcR polypeptide is fused to the N-terminus of a luciferase polypeptide fragment (EcR_Nluc) and another fragment of luciferase has an EcR polypeptide fused to its C-terminal end (Cluc_EcR); thereby activating luciferase (generation of bioluminescence) upon EcR homodimerization;

RxR domains = target: T2, RxR domains (Homo sapiens, UniProt P28702, A451V/A495S/C475T/D450E/E481D/K452R/K476R/K478T/K511R/N456S/P457A/Q477T/Q482E/Q483P/S455K/S458Q/S470A/T473E/T516V/V462L/Y479H); assay: Split fLuc bioluminescence assay, RxR homodimerization; format: cell-based; conditions: FIGS. 11 and 12
T2 construct: expressed in transfected cells
Procedure: as §3
“RxR” is Retinoid X receptor;

Cluc_RxR = target: T3, Cluc_RxR; assay: split firefly luciferase complementation, with and without Veledimex
T3 construct: Expressed in transfected 293T cells
T3 chain: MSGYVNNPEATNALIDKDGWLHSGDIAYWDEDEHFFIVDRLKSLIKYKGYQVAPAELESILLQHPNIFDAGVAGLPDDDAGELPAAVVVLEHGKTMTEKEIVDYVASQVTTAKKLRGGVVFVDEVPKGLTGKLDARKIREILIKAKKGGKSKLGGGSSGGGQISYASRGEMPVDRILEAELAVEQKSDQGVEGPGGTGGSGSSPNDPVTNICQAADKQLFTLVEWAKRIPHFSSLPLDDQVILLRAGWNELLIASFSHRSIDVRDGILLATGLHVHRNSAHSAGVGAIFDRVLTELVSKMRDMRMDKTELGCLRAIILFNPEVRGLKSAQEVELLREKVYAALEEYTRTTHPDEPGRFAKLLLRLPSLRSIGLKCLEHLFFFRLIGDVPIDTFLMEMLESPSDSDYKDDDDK
Procedure: as §1
as §2, with “CO₂” for “CO2”

CCC[C@@H](N(NC(=O)c1cccc(OC)c1CC)C(=O)c1cc(C)cc(C)c1)C(C)(C)C [Veledimex]
RxR-EcR heterodimerization (bioluminescence) ([1]; EcR_Nluc+Cluc_RXR, Example 2, FIGS. 11 and 12): strongest signal (bioluminescence) was observed
fLuc signal (bioluminescence) ([1]; cells transfected with split fLuc fused to EcR and RXR, 100 nM Veledimex, 6 hours after addition, FIG. 7, listed as activating ligand): fLuc signal was detected; also recorded: a clear fLuc signal is generated; also recorded: drives split fLuc signal only in the presence of activating ligand
Signal of the positive control (STAT1 split fLuc) (STAT1): unaffected
fLuc reading, activating ligand alone (293T cells): only background readings
EcR domain homodimerization (bioluminescence) (EcR_Nluc+Cluc_EcR): statistically significant homodimerization of EcR domains
RxR domain homodimerization (bioluminescence) (RxR domains): homodimerize independent of ligand

B1: RxR Nluc (other)
chain: MDYKDDDDKEMPVDRILEAELAVEQKSDQGVEGPGGTGGSGSSPNDPVTNICQAADKQLFTLVEWAKRIPHFSSLPLDDQVILLRAGWNELLIASFSHRSIDVRDGILLATGLHVHRNSAHSAGVGAIFDRVLTELVSKMRDMRMDKTELGCLRAIILFNPEVRGLKSAQEVELLREKVYAALEEYTRTTHPDEPGRFAKLLLRLPSLRSIGLKCLEHLFFFRLIGDVPIDTFLMEMLESPSDSQISYASRGGGSSGGGEDAKNIKKGPAPFYPLEDGTAGEQLHKAMKRYALVPGTIAFTDAHIEVNITYAEYFEMSVRLAEAMKRYGLNTNHRIVVCSENSLQFFMPVLGALFIGVAVAPANDIYNERELLNSMNISQPTVVFVSKKGLQKILNVQKKLPIIQKIIIMDSKTDYQGFQSMYTFVTSHLPPGFNEYDFVPESFDRDKTIALIMNSSGSTGLPKGVALPHRTACVRFSHARDPIFGNQIIPDTAILSVVPFHHGFGMFTTLGYLICGFRVVLMYRFEEELFLRSLQDYKIQSALLVPTLFSFFAKSTLIDKYDLSNLHEIASGGAPLSKEVGEAVAKRFHLPGIRQGYGLTETTSAILITPEGDDKPGAVGKVVPFFEAKVVDLDTGKTLGVNQRGELCVRGPMIMSGYVNNPEATNALIDKDG
notes: also called R×R Nluc; RXR-fLuc
binding result (Cluc_RxR): binds
